Results on ten molecules are retold here after patent US6596772B1, “Phosphate mimics and methods of treatment using phosphatase inhibitors” (Sugen, Inc., priority 1999, dated 2003).

Some results are limits rather than exact numbers.

Usually IC50 stands for the concentration needed to halve the response being measured.

Holding throughout (test): PTP IC50 assay, fluorescent substrate DiFMUP
Format in all cases: biochemical

Assay [1] concerns the target T1, PTP SHP2 (Homo sapiens, UniProt Q06124).
T1 construct: The catalytic domain was amplified using the following oligonucleotides; made in house; host or cells: Sf-9 insect cells (pFastBac-G2T)
T1 sequence (Q06124 247-517 limits assumed): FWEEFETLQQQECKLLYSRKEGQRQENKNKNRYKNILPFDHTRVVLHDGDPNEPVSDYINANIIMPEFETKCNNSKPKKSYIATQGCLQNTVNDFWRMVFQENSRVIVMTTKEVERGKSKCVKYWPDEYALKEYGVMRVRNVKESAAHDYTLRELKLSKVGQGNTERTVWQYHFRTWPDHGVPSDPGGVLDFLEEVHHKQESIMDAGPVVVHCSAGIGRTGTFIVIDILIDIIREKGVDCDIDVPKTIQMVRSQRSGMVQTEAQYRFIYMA
The following applies: DiFMUP as substrate, 25° C.; read-out: PTP IC50 SHP2.

Assay [2] concerns the target T2, PTP 1B (Homo sapiens, UniProt P18031).
T2 construct: made in house; host or cells: Sf-9 insect cells (pFastBac-G2T)
T2 sequence (P18031 1-435): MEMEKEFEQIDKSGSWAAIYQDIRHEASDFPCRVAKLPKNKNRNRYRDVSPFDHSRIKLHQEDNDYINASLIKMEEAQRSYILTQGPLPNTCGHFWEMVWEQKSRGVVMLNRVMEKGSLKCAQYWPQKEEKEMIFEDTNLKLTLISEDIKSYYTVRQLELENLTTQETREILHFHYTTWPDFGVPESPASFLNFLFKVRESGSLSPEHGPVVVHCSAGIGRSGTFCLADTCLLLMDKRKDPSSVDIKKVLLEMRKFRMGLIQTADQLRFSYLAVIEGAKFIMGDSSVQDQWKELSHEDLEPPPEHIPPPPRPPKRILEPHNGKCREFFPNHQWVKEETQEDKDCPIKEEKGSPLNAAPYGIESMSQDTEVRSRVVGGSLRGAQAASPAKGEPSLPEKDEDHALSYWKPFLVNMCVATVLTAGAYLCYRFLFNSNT
The following applies: DiFMUP as substrate, 25° C.; read-out: PTP IC50 1B.

In assay [3] the target is T3, PTP EPSILON (Homo sapiens, UniProt P23469).
T3 construct: made in house; host or cells: Sf-9 insect cells (pFastBac-G2T); a pGEX 6P-1 construct also existed
T3 sequence (P23469 80-393 limits assumed): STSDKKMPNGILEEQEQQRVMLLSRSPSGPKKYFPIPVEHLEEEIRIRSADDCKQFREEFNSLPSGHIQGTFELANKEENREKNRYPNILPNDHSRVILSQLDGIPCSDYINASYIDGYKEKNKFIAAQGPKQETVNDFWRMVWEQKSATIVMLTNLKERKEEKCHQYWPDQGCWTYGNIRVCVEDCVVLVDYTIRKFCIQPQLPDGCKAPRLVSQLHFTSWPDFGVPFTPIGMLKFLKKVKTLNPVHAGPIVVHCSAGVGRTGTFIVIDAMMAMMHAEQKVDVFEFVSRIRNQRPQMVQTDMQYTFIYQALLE
The following applies: DiFMUP as substrate, 25° C.; read-out: PTP IC50 Epilson.

As to `CCOC(=O)c1cc2cc(NS(=O)(=O)C(F)(F)F)ccc2n1CC(=O)OC(C)(C)C` [Example 94, 1-tert-Butoxycarbonylmethyl-5-trifluoromethanesulfonylamino-1H-indole-2-carboxylic acid ethyl ester], the values for the half-maximal inhibitory concentration (IC50) in assay [1], in assay [2] and in assay [3] were 1.5 µM, 12 µM and 4.2 µM, respectively.
On the same counts, the results for `CCOC(=O)c1cc2cc(NS(=O)(=O)C(F)(F)F)ccc2n1CC(=O)O` [Example 95, 1-Carboxymethyl-5-trifluoromethanesulfonylamino-1H-indole-2-carboxylic acid ethyl ester] are more than 20 µM, more than 100 µM and more than 100 µM.
On the same counts, the results for `CC(C)(C)OC(=O)Cn1c(C(=O)O)cc2cc(NS(=O)(=O)C(F)(F)F)ccc21` [Example 96, 1-tert-Butoxycarbonylmethyl-5-trifluoromethanesulfonylamino-1H-indole-2-carboxylic acid] are 9.1 µM, 34.7 µM and 31.2 µM.
As for `O=C(O)Cn1c(C(=O)O)cc2cc(NS(=O)(=O)C(F)(F)F)ccc21` [Example 97, 1-Carboxymethyl-5-trifluoromethanesulfonylamino-1H-indole-2-carboxylic acid], the half-inhibitory concentration (IC50) in assay [1] was 6.1 µM; in assay [2], 44.2 µM; in assay [3] it was 62.9 µM.
On the same counts, the results for `CCOC(=O)c1cc2cc(N(S(=O)(=O)C(F)(F)F)S(=O)(=O)C(F)(F)F)ccc2n1CC(=O)O` [Example 98, 1-Carboxymethyl-5-(N,N-ditrifluoromethanesulfonyl)amino-1H-indole-2-carboxylic acid ethyl ester] are more than 20 µM, more than 100 µM and 41.6 µM.
On the same counts, the results for `CCOC(=O)c1cc2cc(N(S(=O)(=O)C(F)(F)F)S(=O)(=O)C(F)(F)F)ccc2n1CC(=O)OC(C)(C)C` [Example 99, 1-tert-Butoxycarbonylmethyl-5-(N,N-ditrifluoromethanesulfonyl)amino-1H-indole-2-carboxylic acid ethyl ester] are 7 µM, 4.8 µM and 27.5 µM.
The matching figures for `O=C(O)Cn1c(C(=O)O)cc2cc(N(S(=O)(=O)C(F)(F)F)S(=O)(=O)C(F)(F)F)ccc21` [Example 100, 1-Carboxymethyl-5-(N,N-ditrifluoromethanesulfonyl)amino-1H-indole-2-carboxylic acid]: more than 20 µM, more than 100 µM and more than 100 µM.
Consider `CCOC(=O)c1cc2cc(NS(=O)(=O)C(F)(F)F)ccc2n1CC1CCCCC1` [Example 101, 1-Cyclohexylmethyl-5-trifluoromethanesulfonylamino-1H-indole-2-carboxylic acid ethyl ester], for which the IC50 in assay [1] was 3.4 µM; in assay [2], 6.6 µM; in assay [3], 1.4 µM.
On the same counts, the results for `O=C(O)c1cc2cc(NS(=O)(=O)C(F)(F)F)ccc2n1Cc1ccccc1` [Example 102, 1-Benzyl-5-trifluoromethanesulfonylamino-1H-indole-2-carboxylic acid] are 4 µM, 43.1 µM and 12.2 µM.
In the case of `O=C(O)c1cc2cc(NS(=O)(=O)C(F)(F)F)ccc2n1CC1CCCCC1` [Example 103, 1-Cyclohexylmethyl-5-trifluoromethanesulfonylamino-1H-indole-2-carboxylic acid], the figures for the IC50 in assay [1], in assay [2] and in assay [3] were 17.9 µM, more than 100 µM and 34.7 µM, respectively.
